This note sets out measurements from patent US20200181284A1, “EPIGENETIC INHIBITORS FOR SENSITIZING HEMATOLOGIC OR OTHER MALIGNANCIES TO GLUCOCORTICOID THERAPY” (UNIVERSITY OF SOUTHERN CALIFORNIA, priority 2017, published 2020).

SMILES strings stand for the structures.

One assay deals with EHMT2 phosphorylation. Description: Phosphorylation of EHMT2 in NALM-6 cells (pan ph-T immunoprecipitation, EHMT2 immunoblot). The format is cell-based, human. Conditions: NALM-6, 0.75 μM ZM447439, 24 h. As for the experimental part: Cells were treated as indicated, and cell extracts were prepared in RIPA buffer ([…] Tris-HCl, pH 8, 150 mM NaCL, 1 mM EDTA, 1% NP-40, and 0.25% deoxycholate) supplemented with protease inhibitor tablets (Roche Molecular Biochemicals) and phosphatase inhibitors (1 mM NaF, 1 mM Na3VO4, and 1 mM β-glycerophosphate). Protein extracts were incubated overnight at 4° C. with shaking with 1 μg of antibodies against EHMT2 (Sigma G6919), EHMT1 (Millipore 09-078), or pan phospho-threonine (Millipore AB1607). Protein A/G plus agarose beads (Santa Cruz sc-2003) were added, and the mixture was incubated 2 h at 4° C. The immunoprecipitates were separated on SDS-PAGE. […]
FIGS. 48A, 48B, 48C, 48D, 48E, and 48F show the effect of AURKB inhibitors on EHMT2 phosphorylation and dex-induced cell death. […] In each condition, the value measured with dex was normalized to the fluorescence value measured with ethanol. Percentage of survival is shown as the mean±SEM of 4 independent experiments and p-values for individual dex concentrations were calculated using a paired t-test. *p≤0.05, **p≤0.01, * * *p≤0.001. […] EC50s were calculated as the concentration at which half the cells remained alive, compare to vehicle controls. Error bars depict the SEM of 4 independent experiments and p-value was calculated to compare ZM treatment to DMSO using a paired t-test **p≤0.01, * * *p≤0.001. […]

In assay [1] the test system is phosphorylation of GR or HP1γ. Description: Immunoblot of GR and HP1γ phosphorylation in A549 cells. As to conditions: 2 μM, 24 h. In kind it is cell-based, human. The method, then: Cos-7 or A549 cells were seeded on 10-cm dishes the day before transfection. Cells were transiently transfected (where indicated) using Lipofectamine 2000 (Invitrogen) with 5 μg each of the indicated plasmids according to the manufacturer's protocol. At 48 h after transfection, cells were treated (or not) with dex for the indicated time period, and cell extracts were prepared in RIPA buffer (50 mM Tris-HCl, pH 8, 150 mM NaCl, 1 mM EDTA, 1% NP-40 and 0.25% deoxycholate) supplemented with protease inhibitor tablets (Roche Molecular Biochemicals) and phosphatase inhibitors (1 mM NaF, 1 mM Na3VO4 and 1 mM β-glycerophosphate). Protein extracts were incubated with 1 μg of the indicated primary antibodies overnight at 4° C. with shaking. Protein A/G Plus Agarose (Santa Cruz sc-2003) beads were added and the mixture was incubated 2 hr at 4° C. The immunoprecipitates were separated on SDS-PAGE. […] In immunoprecipitation experiments 3% of the input of each sample was analyzed by immunoblot using the antibodies listed.
102371 Aurora kinase B inhibition has no effect of phosphorylation of GR or HP1γ as highlighted in the results as shown in FIG. 27E. […] Whole-cell extracts were analyzed with the listed antibodies by immunoblot.

In the case of `COc1cc2c(Nc3ccc(NC(=O)c4ccccc4)cc3)ncnc2cc1OCCCN1CCOCC1` [ZM447439, N-[4-[[6-methoxy-7-(3-morpholin-4-ylpropoxy)quinazolin-4-yl]amino]phenyl]benzamide], the “phosphorylation of EHMT2” value in the assay on EHMT2 phosphorylation was “reduced”. Moreover, the “phosphorylation of GR or HP1γ” value in assay [1] was “no effect”.
